Tested on: NCI-H716 cells
Assay: Release of active GLP-1 by NCI-H716 cells
Type: cell-based, human
Details: alpha-lactose dose equivalent to that contained in the wheys, 2 h incubation, active GLP-1 only
Experimental: Cells were grown in suspension at 37° C., 5% CO2. The culture medium consisted of RPMI 1640 supplemented with 10% FBS, 2 mM L-glutamine, 100 IU/ml penicillin and 100 μg/ml streptomycin. […] Cells were, therefore, seeded in dishes coated with […] ® (Becton Dickinson, Bedford, Mass., USA) two days before experiments.
Two days before experiments, 1×10^6 cells were seeded in 12 well culture plates coated with […] ®. On the day of the experiment, the supernatant was replaced by Krebs-Ringer Bicarbonate Buffer (KRB) containing 0.2% wt/vol BSA with or without CGMP. Cells were incubated for 2 h at 37° C. Supernatants were collected with the addition of 50 μg/ml PMSF and frozen at −80° C. for subsequent analysis by radioimmunoassay (RIA) of GLP-1. Cells were scraped with a rubber policeman and homogenization buffer [1 N HCl containing 5% (v/v) HCOOH, 1% (v/v) trifluoroacetic acid (TFA), and 1% (v/v) NaCl] and sonicated for 15 s. […] The intraassay coefficient of variance was 2.28%.
Here, a kit was used that only measures the active form of GLP-1, i.e., GLP-1 (7-37) or GLP-1 (7-36 amide), but not the degraded form, GLP-1 (9-36 amide), as was included in the data for FIGS. 1-3.

## OC[C@H]1O[C@@H](O[C@H]2[C@H](O)[C@@H](O)[C@@H](O)O[C@@H]2CO)[C@H](O)[C@@H](O)[C@H]1O [alpha-lactose]
  GLP-1 secretion compared to the control: 144±32%

— patent US8710003B2, “Treatment of diabetes with milk protein hydrolysate” (Nestec S.A., priority 1999, dated 2014)
